Details: Hot wire method

C=C(F)C(F)(F)F [2,3,3,3-tetrafluoro-1-propene]
Details	thermal conductivity [W/m/K]
272.85 K, 247 kPa, Gas	0.01156
272.89 K, 200 kPa, Gas	0.01156
272.97 K, 145 kPa, Gas	0.0116
273.04 K, 106 kPa, Gas	0.01162
273.14 K, 261 kPa, Gas	0.01159
273.17 K, 273 kPa, Gas	0.01162
273.19 K, 247 kPa, Gas	0.01159
273.26 K, 200 kPa, Gas	0.0116
273.35 K, 144 kPa, Gas	0.01162
273.44 K, 105 kPa, Gas	0.01163
273.46 K, 258 kPa, Gas	0.01159
273.55 K, 274 kPa, Gas	0.01163
273.58 K, 248 kPa, Gas	0.01163
273.64 K, 200 kPa, Gas	0.0116
273.76 K, 142 kPa, Gas	0.01165
273.82 K, 255 kPa, Gas	0.01165
273.87 K, 104 kPa, Gas	0.01165
274.2 K, 253 kPa, Gas	0.01169
281.36 K, 838 kPa, Liquid	0.06988
281.38 K, 860 kPa, Liquid	0.06977
281.41 K, 5779 kPa, Liquid	0.07285
281.44 K, 10941 kPa, Liquid	0.07602
281.46 K, 841 kPa, Liquid	0.06981
281.48 K, 862 kPa, Liquid	0.06968
281.51 K, 5779 kPa, Liquid	0.07276
281.54 K, 10939 kPa, Liquid	0.07609
281.66 K, 86 kPa, Gas	0.01256
281.66 K, 204 kPa, Gas	0.01278
281.79 K, 859 kPa, Liquid	0.06833
281.83 K, 10935 kPa, Liquid	0.07514
281.88 K, 202 kPa, Gas	0.01259
281.89 K, 87 kPa, Gas	0.01239
281.89 K, 843 kPa, Liquid	0.06853
281.93 K, 861 kPa, Liquid	0.06844
281.93 K, 5767 kPa, Liquid	0.07189
281.94 K, 10934 kPa, Liquid	0.07471
281.98 K, 15950 kPa, Liquid	0.07767
282.01 K, 15964 kPa, Liquid	0.07708
282.11 K, 200 kPa, Gas	0.0125
282.13 K, 88 kPa, Gas	0.01231
282.23 K, 841 kPa, Liquid	0.06878
282.25 K, 20590 kPa, Liquid	0.0797
282.26 K, 866 kPa, Liquid	0.06872
282.26 K, 5764 kPa, Liquid	0.07204
282.26 K, 10935 kPa, Liquid	0.07477
282.27 K, 15954 kPa, Liquid	0.07706
282.31 K, 15965 kPa, Liquid	0.0773
282.35 K, 198 kPa, Gas	0.01243
282.38 K, 90 kPa, Gas	0.01224
282.4 K, 841 kPa, Liquid	0.06858
282.4 K, 5763 kPa, Liquid	0.07193
282.4 K, 10935 kPa, Liquid	0.07479
282.41 K, 864 kPa, Liquid	0.0687
282.41 K, 15954 kPa, Liquid	0.07738
282.44 K, 15967 kPa, Liquid	0.07756
282.56 K, 395 kPa, Gas	0.01244
282.61 K, 196 kPa, Gas	0.01241
282.61 K, 308 kPa, Gas	0.01242
282.64 K, 91 kPa, Gas	0.01218
282.66 K, 20587 kPa, Liquid	0.07986
282.71 K, 204 kPa, Gas	0.0124
282.74 K, 5763 kPa, Liquid	0.07185
282.74 K, 10939 kPa, Liquid	0.07487
282.74 K, 15951 kPa, Liquid	0.07763
282.75 K, 834 kPa, Liquid	0.06855
282.77 K, 860 kPa, Liquid	0.06866
282.77 K, 15964 kPa, Liquid	0.07774
282.81 K, 20585 kPa, Liquid	0.07986
282.87 K, 396 kPa, Gas	0.01251
282.89 K, 10938 kPa, Liquid	0.07473
282.9 K, 15949 kPa, Liquid	0.07751
282.92 K, 87 kPa, Gas	0.01242
282.92 K, 5765 kPa, Liquid	0.07169
282.93 K, 832 kPa, Liquid	0.06832
282.93 K, 15964 kPa, Liquid	0.07755
282.94 K, 309 kPa, Gas	0.01248
282.96 K, 859 kPa, Liquid	0.06843
283.07 K, 203 kPa, Gas	0.01237
283.22 K, 396 kPa, Gas	0.01252
283.24 K, 15950 kPa, Liquid	0.07752
283.25 K, 10936 kPa, Liquid	0.07481
283.26 K, 15963 kPa, Liquid	0.07747
283.26 K, 20587 kPa, Liquid	0.07981
283.28 K, 5763 kPa, Liquid	0.07184
283.3 K, 309 kPa, Gas	0.01244
283.3 K, 832 kPa, Liquid	0.06845
283.33 K, 86 kPa, Gas	0.01249
283.33 K, 857 kPa, Liquid	0.0685
283.43 K, 15951 kPa, Liquid	0.07738
283.45 K, 10934 kPa, Liquid	0.07455
283.45 K, 20590 kPa, Liquid	0.07959
283.46 K, 201 kPa, Gas	0.01238
283.46 K, 15962 kPa, Liquid	0.07733
283.49 K, 5765 kPa, Liquid	0.07154
283.53 K, 830 kPa, Liquid	0.06815
283.56 K, 855 kPa, Liquid	0.06813
283.59 K, 396 kPa, Gas	0.01244
283.69 K, 309 kPa, Gas	0.01251
283.75 K, 88 kPa, Gas	0.0125
283.88 K, 199 kPa, Gas	0.01243
283.93 K, 20590 kPa, Liquid	0.07977
283.98 K, 395 kPa, Gas	0.01256
284.1 K, 309 kPa, Gas	0.01245
284.15 K, 20592 kPa, Liquid	0.07943
284.2 K, 89 kPa, Gas	0.01254
284.31 K, 197 kPa, Gas	0.01245
284.67 K, 91 kPa, Gas	0.01256
291.15 K, 109 kPa, Gas	0.01341
291.17 K, 246 kPa, Gas	0.01364
291.37 K, 109 kPa, Gas	0.01324
291.37 K, 244 kPa, Gas	0.01349
291.59 K, 242 kPa, Gas	0.01339
291.6 K, 109 kPa, Gas	0.01311
291.83 K, 240 kPa, Gas	0.01331
291.85 K, 109 kPa, Gas	0.01303
292.07 K, 238 kPa, Gas	0.01328
292.07 K, 432 kPa, Gas	0.01333
292.1 K, 109 kPa, Gas	0.01299
292.1 K, 342 kPa, Gas	0.01323
292.36 K, 109 kPa, Gas	0.0132
292.39 K, 429 kPa, Gas	0.01328
292.43 K, 342 kPa, Gas	0.01327
292.51 K, 245 kPa, Gas	0.01312
292.67 K, 538 kPa, Gas	0.01326
292.73 K, 428 kPa, Gas	0.01333
292.74 K, 109 kPa, Gas	0.01324
292.78 K, 343 kPa, Gas	0.01325
292.88 K, 243 kPa, Gas	0.01315
293.03 K, 536 kPa, Gas	0.01339
293.08 K, 428 kPa, Gas	0.01323
293.14 K, 109 kPa, Gas	0.01331
293.15 K, 343 kPa, Gas	0.01331
293.28 K, 241 kPa, Gas	0.01321
293.38 K, 532 kPa, Gas	0.01333
293.46 K, 428 kPa, Gas	0.01337
293.55 K, 343 kPa, Gas	0.01331
293.57 K, 109 kPa, Gas	0.01327
293.7 K, 239 kPa, Gas	0.01323
294.03 K, 109 kPa, Gas	0.01333
301.39 K, 199 kPa, Gas	0.01436
301.41 K, 95 kPa, Gas	0.01419
301.62 K, 199 kPa, Gas	0.0142
301.64 K, 95 kPa, Gas	0.01403
301.86 K, 199 kPa, Gas	0.0141
301.88 K, 95 kPa, Gas	0.01395
301.95 K, 868 kPa, Liquid	0.06212
301.98 K, 5731 kPa, Liquid	0.06593
302.03 K, 10752 kPa, Liquid	0.06904
302.06 K, 867 kPa, Liquid	0.06223
302.08 K, 16026 kPa, Liquid	0.07261
302.09 K, 5728 kPa, Liquid	0.0658
302.11 K, 199 kPa, Gas	0.01401
302.13 K, 10752 kPa, Liquid	0.06936
302.14 K, 95 kPa, Gas	0.01385
302.16 K, 648 kPa, Gas	0.0142
302.18 K, 16021 kPa, Liquid	0.0724
302.26 K, 510 kPa, Gas	0.01411
302.37 K, 199 kPa, Gas	0.01396
302.38 K, 350 kPa, Gas	0.01405
302.42 K, 95 kPa, Gas	0.01379
302.43 K, 868 kPa, Liquid	0.06253
302.45 K, 5727 kPa, Liquid	0.06616
302.47 K, 10752 kPa, Liquid	0.06961
302.48 K, 635 kPa, Gas	0.01423
302.5 K, 16022 kPa, Liquid	0.07296
302.54 K, 20560 kPa, Liquid	0.07444
302.56 K, 199 kPa, Gas	0.01413
302.58 K, 865 kPa, Liquid	0.06226
302.58 K, 5727 kPa, Liquid	0.06624
302.59 K, 510 kPa, Gas	0.01416
302.6 K, 10751 kPa, Liquid	0.06953
302.62 K, 16020 kPa, Liquid	0.0724
302.66 K, 20555 kPa, Liquid	0.07461
302.74 K, 350 kPa, Gas	0.01409
302.78 K, 95 kPa, Gas	0.01418
302.82 K, 634 kPa, Gas	0.01428
302.93 K, 199 kPa, Gas	0.01415
302.94 K, 510 kPa, Gas	0.01416
302.96 K, 5727 kPa, Liquid	0.06618
302.96 K, 10747 kPa, Liquid	0.06954
302.97 K, 16018 kPa, Liquid	0.07247
302.98 K, 865 kPa, Liquid	0.0622
303.01 K, 20553 kPa, Liquid	0.07485
303.11 K, 350 kPa, Gas	0.01412
303.13 K, 5725 kPa, Liquid	0.06595
303.13 K, 10746 kPa, Liquid	0.06929
303.13 K, 16018 kPa, Liquid	0.0723
303.15 K, 20550 kPa, Liquid	0.07489
303.16 K, 864 kPa, Liquid	0.0621
303.17 K, 638 kPa, Gas	0.01429
303.31 K, 509 kPa, Gas	0.01414
303.33 K, 199 kPa, Gas	0.01417
303.5 K, 16015 kPa, Liquid	0.07239
303.51 K, 350 kPa, Gas	0.01407
303.51 K, 10746 kPa, Liquid	0.06924
303.51 K, 20552 kPa, Liquid	0.07485

Liquid
Details	thermal conductivity [W/m/K]
273.15 K	0.07159
283.15 K	0.06833
293.15 K	0.06515
303.15 K	0.06204

From the NIST ThermoML archive (doi:10.1021/je200811n)
